PMC4992173, “Divergent synthesis and identification of the cellular targets of deoxyelephantopins” (Nature Communications, 2016)

Tested on: Caco-2 cells
Assay: In situ global proteomics profiling of Caco-2 cells (LC-MS/MS, LFQ)
Assay type: cell-based, human
Conditions: LFQ
Method: Figure 7 Identification of PPARγ as target of deoxyelephantopin and screening of DEP derivatives as PPARγ antagonists. (a) Quantification of endogenous PPARγ enriched from Caco-2 cells using 10 μM 24c following in situ treatment with DEP (20 μM) or DMSO (normalized LFQ values±s.d. are shown; n=6). (b) Changes in expression levels of five PPARγ-dependent proteins following 24 h treatment of Caco-2 cells with DMSO, rosiglitazone (10 μM), T0070907 (50 μM) or DEP (20 μM; LFQ ratios±s.d. are shown; n=3). **P<0.005 and ***P<0.0005 by two-sided Student's t-test. (c) Gel-based competitive screening of DEP and analogues as PPARγ antagonists against recombinant human enzyme (top). hPPARγ was treated with each compound (20 μM) for 1 h followed by treatment with 24c-Cy3 (10 μM) as probe. Quantification of fluorescence intensity in the competitive screening for PPARγ antagonists (bottom; values±s.d. are shown; n=3).
Caco-2 cells were treated with DMSO, PPARγ agonist rosiglitazone, antagonist T0070907 or DEP for 24 h, the cells were collected and the proteomes were comparatively analysed by LC–MS/MS. […] Furthermore, the list of 43 dysregulated proteins was analysed and classified using the GOrilla pathway analysis tool (Supplementary Fig. 15). […]
In situ global proteomics profiling using LC-MS/MS. Caco- ’ cells/mL) in a 6-well plate, allowed to grow to confluence and to differentiate for 28 days. The wells were washed one time with PBS and treated with either DMSO, 10 µM rosiglitazone, 50 µM T0070907 or 20 µM DEP for 24 hours. Cells were washed two times with PBS and lysates were prepared. Samples (30 µg) were denatured with 6 M urea in 50 mM NH4HCO3, reduced […]
dark. Samples were diluted to 2 M urea with 50 mM NH4HCO3, and digested with trypsin ([…] for 12 hours at 37 °C. Samples were acidified to a final concentration of 5% acetic acid, desalted over a self-packed C18 spin column and […]
dried. […]
LC-MS/MS analysis. Peptides were resuspended in water with 0.1% formic acid (FA) and analyzed using Proxeon EASY-nLC 1000 nano-UHPLC coupled to QExactive Plus Quadrupole-Orbitrap mass spectrometer (Thermo Scientific). The chromatography column […]
H2O (Buffer A) and 0.1% FA in MeCN (Buffer B). Peptides were eluted into the mass spectrometer at a flow rate of 300 nL/min. over a 240 min. linear gradient (3-35% Buffer B) at 50 °C. Data was acquired in data-dependent mode (top- N = ’ […]
and isotope exclusion was enabled.
MaxQuant analysis. The MS data was analyzed with MaxQuant (V1.5.2.8) and searched against the human proteome (Uniprot, 89,649 entries) and a common list of contaminants (included in MaxQuant). The first peptide search tolerance was set to 20 ppm, 10 ppm was used for the main peptide search and fragment mass tolerance was set to 0.02 Da. The false discovery rate for peptides, proteins and sites identification was set to 1%. The minimum peptide length was set to 6 amino acids and peptide re-quantification, label-free quantification (MaxLFQ) and “ ” were enabled. The minimal number of peptides per protein was set to two. Oxidized methionines and N-terminal acetylation were searched as variable modifications and carbamidomethylation of cysteines was searched as a fixed modification. For SILAC experiments 13C6 L-lysine and 13C6 15N4 L-arginine were set as heavy isotope labels and 12C6 L-lysine and 12C6 14N4 L-arginine as light isotope labels.
19 d k g h ARγ. 19a was covalently docked to the crystal structure of human γ ZU 190 using the GOLD suite (V5.3, CCDC). The default GOLD fitness function was used to determine the best binding configuration. The distance for hydrogen bonding was set to 3 Å.
IAA competition of 23c, 24c and DEP h ARγ. γ
(500 ng in 9 µL PBS) was treated with either 100 µM DEP, 23c, 24c or DMSO (1 µL of 10x stock in DMSO) for one hour. Samples were denatured with 6 M urea in 50 mM NH4HCO3, […]
in the dark. Samples were diluted to 2 M urea with 50 mM NH4HCO3, and digested with trypsin […]

## CN(CCOc1ccc(CC2SC(=O)NC2=O)cc1)c1ccccn1 (centres unmarked) [Rosiglitazone, rosiglitazone]
Protein ALDH3B1, 24 h
  Log2 10 µM Rosiglitazone/DMSO: -0.32
Protein ARHGAP17, 24 h
  Log2 10 µM Rosiglitazone/DMSO: 0.39
Protein ARMCX3, 24 h
  Log2 10 µM Rosiglitazone/DMSO: -0.36
Protein COL4A3BP, 24 h
  Log2 10 µM Rosiglitazone/DMSO: -0.06
Protein CROT, 24 h
  Log2 10 µM Rosiglitazone/DMSO: 0.034
Protein CTBP2, 24 h
  Log2 10 µM Rosiglitazone/DMSO: 0.36
Protein DDX21, 24 h
  Log2 10 µM Rosiglitazone/DMSO: 0.15
Protein FNTA, 24 h
  Log2 10 µM Rosiglitazone/DMSO: -0.12
Protein GID8, 24 h
  Log2 10 µM Rosiglitazone/DMSO: 0.46
Protein GIPC2, 24 h
  Log2 10 µM Rosiglitazone/DMSO: 0.0144
Protein GIT2, 24 h
  Log2 10 µM Rosiglitazone/DMSO: -0.38
Protein GSTA1, 24 h
  Log2 10 µM Rosiglitazone/DMSO: 0.21
Protein GSTA2, 24 h
  Log2 10 µM Rosiglitazone/DMSO: 0.20
Protein GSTM3, 24 h
  Log2 10 µM Rosiglitazone/DMSO: 0.30
Protein HIGD1A, 24 h
  Log2 10 µM Rosiglitazone/DMSO: 0.43
Protein IREB2, 24 h
  Log2 10 µM Rosiglitazone/DMSO: 0.26
Protein ITGB4, 24 h
  Log2 10 µM Rosiglitazone/DMSO: 0.08
Protein LDHD, 24 h
  Log2 10 µM Rosiglitazone/DMSO: -0.20
Protein LDLR, 24 h
  Log2 10 µM Rosiglitazone/DMSO: 0.49
Protein LIPA, 24 h
  Log2 10 µM Rosiglitazone/DMSO: 0.034
Protein MARCH5, 24 h
  Log2 10 µM Rosiglitazone/DMSO: 0.40
Protein MGMT, 24 h
  Log2 10 µM Rosiglitazone/DMSO: -0.17
Protein MYO15B, 24 h
  Log2 10 µM Rosiglitazone/DMSO: 0.08
Protein NOP9, 24 h
  Log2 10 µM Rosiglitazone/DMSO: 0.07
Protein OAS1, 24 h
  Log2 10 µM Rosiglitazone/DMSO: 0.0144
Protein OGDHL, 24 h
  Log2 10 µM Rosiglitazone/DMSO: 0.10
Protein PANK4, 24 h
  Log2 10 µM Rosiglitazone/DMSO: -0.34
Protein PHPT1, 24 h
  Log2 10 µM Rosiglitazone/DMSO: -0.36
Protein PSIP1, 24 h
  Log2 10 µM Rosiglitazone/DMSO: 0.49
Protein RAB5B, 24 h
  Log2 10 µM Rosiglitazone/DMSO: 0.49
Protein RBP4, 24 h
  Log2 10 µM Rosiglitazone/DMSO: 0.20
Protein RRS1, 24 h
  Log2 10 µM Rosiglitazone/DMSO: 0.50
Protein SAMHD1, 24 h
  Log2 10 µM Rosiglitazone/DMSO: -0.43
Protein SCAMP3, 24 h
  Log2 10 µM Rosiglitazone/DMSO: 0.45
Protein SETDB1, 24 h
  Log2 10 µM Rosiglitazone/DMSO: 0.08
Protein SLC26A3, 24 h
  Log2 10 µM Rosiglitazone/DMSO: 0.10
Protein SLC39A14, 24 h
  Log2 10 µM Rosiglitazone/DMSO: -0.49
Protein STK4, 24 h
  Log2 10 µM Rosiglitazone/DMSO: 0.36
Protein SURF6, 24 h
  Log2 10 µM Rosiglitazone/DMSO: 0.26
Protein TGOLN2, 24 h
  Log2 10 µM Rosiglitazone/DMSO: 0.28
Protein TPD52L1, 24 h
  Log2 10 µM Rosiglitazone/DMSO: -0.45
Protein TTR, 24 h
  Log2 10 µM Rosiglitazone/DMSO: 0.46
Protein VPS52, 24 h
  Log2 10 µM Rosiglitazone/DMSO: 0.42

## O=C(Nc1ccncc1)c1cc([N+](=O)[O-])ccc1Cl [T0070907]
Protein ALDH3B1, 24 h
  Log2 50 µM T0070907/DMSO: -0.79
Protein ARHGAP17, 24 h
  Log2 50 µM T0070907/DMSO: -0.81
Protein ARMCX3, 24 h
  Log2 50 µM T0070907/DMSO: -0.71
Protein COL4A3BP, 24 h
  Log2 50 µM T0070907/DMSO: -0.76
Protein CROT, 24 h
  Log2 50 µM T0070907/DMSO: -0.85
Protein CTBP2, 24 h
  Log2 50 µM T0070907/DMSO: 0.83
Protein DDX21, 24 h
  Log2 50 µM T0070907/DMSO: 0.92
Protein FNTA, 24 h
  Log2 50 µM T0070907/DMSO: -0.97
Protein GID8, 24 h
  Log2 50 µM T0070907/DMSO: 0.60
Protein GIPC2, 24 h
  Log2 50 µM T0070907/DMSO: -0.69
Protein GIT2, 24 h
  Log2 50 µM T0070907/DMSO: -0.89
Protein GSTA1, 24 h
  Log2 50 µM T0070907/DMSO: -0.76
Protein GSTA2, 24 h
  Log2 50 µM T0070907/DMSO: -0.80
Protein GSTM3, 24 h
  Log2 50 µM T0070907/DMSO: -0.71
Protein HIGD1A, 24 h
  Log2 50 µM T0070907/DMSO: 0.70
Protein IREB2, 24 h
  Log2 50 µM T0070907/DMSO: 0.96
Protein ITGB4, 24 h
  Log2 50 µM T0070907/DMSO: 1.36
Protein LDHD, 24 h
  Log2 50 µM T0070907/DMSO: -0.67
Protein LDLR, 24 h
  Log2 50 µM T0070907/DMSO: 1.99
Protein LIPA, 24 h
  Log2 50 µM T0070907/DMSO: -0.85
Protein MARCH5, 24 h
  Log2 50 µM T0070907/DMSO: 1.21
Protein MGMT, 24 h
  Log2 50 µM T0070907/DMSO: -0.69
Protein MYO15B, 24 h
  Log2 50 µM T0070907/DMSO: -0.74
Protein NOP9, 24 h
  Log2 50 µM T0070907/DMSO: 1.10
Protein OAS1, 24 h
  Log2 50 µM T0070907/DMSO: 0.92
Protein OGDHL, 24 h
  Log2 50 µM T0070907/DMSO: -1.02
Protein PANK4, 24 h
  Log2 50 µM T0070907/DMSO: -0.81
Protein PHPT1, 24 h
  Log2 50 µM T0070907/DMSO: -1.25
Protein PSIP1, 24 h
  Log2 50 µM T0070907/DMSO: 0.60
Protein RAB5B, 24 h
  Log2 50 µM T0070907/DMSO: 0.62
Protein RBP4, 24 h
  Log2 50 µM T0070907/DMSO: -0.37
Protein RRS1, 24 h
  Log2 50 µM T0070907/DMSO: 0.77
Protein SAMHD1, 24 h
  Log2 50 µM T0070907/DMSO: -0.81
Protein SCAMP3, 24 h
  Log2 50 µM T0070907/DMSO: 0.64
Protein SETDB1, 24 h
  Log2 50 µM T0070907/DMSO: 0.63
Protein SLC26A3, 24 h
  Log2 50 µM T0070907/DMSO: -1.02
Protein SLC39A14, 24 h
  Log2 50 µM T0070907/DMSO: -0.69
Protein STK4, 24 h
  Log2 50 µM T0070907/DMSO: -0.81
Protein SURF6, 24 h
  Log2 50 µM T0070907/DMSO: 0.78
Protein TGOLN2, 24 h
  Log2 50 µM T0070907/DMSO: 0.93
Protein TPD52L1, 24 h
  Log2 50 µM T0070907/DMSO: -1.09
Protein TTR, 24 h
  Log2 50 µM T0070907/DMSO: -1.25
Protein VPS52, 24 h
  Log2 50 µM T0070907/DMSO: 0.77
